≈ marks a conversion by molar mass, not a printed value.
What was measured:
[1] = Compound was evaluated for its antimalarial activity in vitro on Plasmodium falciparum; format: functional
[2] = Compound was evaluated for toxicity on Human kidney epithelial (Graham cells) at a dose of 100 ug/mL; format: cell-based
[3] = Compound was evaluated for toxicity on Human kidney epithelial (Graham cells) at a dose of 100 ug/mL; Not toxic; format: cell-based

SMILES | IC50 [1] | IC50 [2] | IC50 [3]
C=C1C(=O)[C@@]23CCC4[C@@]5(C)CCC[C@@]4(OC5=O)[C@@]2(C)CC[C@]1(O)C3 (stereo not given in full) | 0.54 µg/mL (≈ 1.63 µM) | 1.73 µg/mL (≈ 5.24 µM) | –
C=C1C(=O)[C@@]23CC[C@@H]4[C@@]5(C)CCC[C@@]4(OC5=O)[C@@]2(C)CC[C@]1(OC)C3 | 0.67 µg/mL (≈ 1.95 µM) | 1.13 µg/mL (≈ 3.28 µM) | –
C=C1C(=O)[C@@]23CCC4[C@@]5(C)CCC[C@@]4(OC5=O)[C@@]2(C)CC[C@@H]1C3 (stereo not given in full) | 1.57 µg/mL (≈ 4.99 µM) | 3.01 µg/mL (≈ 9.57 µM) | –
CCN(CC)CCCC(C)Nc1ccnc2cc(Cl)ccc12 (stereo not given) [CHLOROQUINE] | 0.04 µg/mL (≈ 0.125 µM) | – | Non-toxic
C=C[C@H]1CN2CC[C@H]1C[C@H]2[C@H](O)c1ccnc2ccc(OC)cc12 [QUININE] | 0.17 µg/mL (≈ 0.524 µM) | – | Non-toxic
